# According to US7829591B2, “Flavanone compound and uses thereof” (Pokka Corporation, priority 2003, dated 2010):
# Assay: β-carotene fading test
# Format: biochemical
# Settings: for Antioxidant Activity (%) from β-carotene Fading Test: 20 μM in reaction liquid, 60° C. for 60 minutes, absorbance 470 nm, average ± SD of three runs; for antioxidant activity (in words): comparison from Table 1
# Method: β-carotene will fade due to the reaction of linoleic acid peroxide, which is produced by the autoxidation of linoleic acid, with a double bond in β-carotene. This phenomenon was utilized so as to determine the antioxidant activity of each of Compounds 1 to 4 and the like. That is, first of all, 2 ml of a 200 mg/ml solution of Tween-40 in chloroform, 0.4 ml of a 100 mg/ml solution of linoleic acid in chloroform, and 3 ml of a 0.1 mg/ml solution of β-carotene in chloroform were mixed, and thereafter the solvent was removed by using a nitrogen gas. Subsequently, 100 ml of distilled water was added thereto, and adequately stirred to obtain an emulsion. To 3 ml of this emulsion, ethanol was added to completely dissolve the solute in the solvent. Thereafter, each of Compounds 1 to 4 was dissolved in ethanol so as to prepare a sample solution having a concentration of 1.2 mM. 50 μl of the sample solution was mixed with the above emulsion wherein the solute had been completely dissolved so as to prepare a reaction liquid (or a sample reaction liquid). Then the concentration of each of Compounds 1 to 4 in the reaction liquid was 20 μM. The reaction liquid was incubated at 60° C. for 60 minutes. Then the absorbance of each of the reaction liquid before the incubation and the reaction liquid after the incubation was determined at 470 nm. Furthermore, BHT, α-tocopherol, or eriodictyol was used in place of Compounds 1 to 4 so as to determine the absorbance of the reaction liquid before and after incubation according to a similar procedure to the above-mentioned one. In addition, as a control, a reaction liquid (or a control reaction liquid) wherein no sample solution was contained was prepared so as to determine the absorbance of the reaction liquid before and after incubation according to a similar procedure to the above-mentioned one. The antioxidant activity (%) of each of the materials was calculated using the following calculation formula 2. Incidentally, each of values shown in Table 1 is the average value and standard deviation of values obtained from three runs. (Antioxidant Activity)=[{(Fading Rate of Control)−(Fading Rate of Sample Solution)}/(Fading Rate of Control)]×100 Calculation Formula 2
# It should be noted that in the calculation formula 2, “Fading Rate of Control” is the natural logarithm of a value which is acquired by dividing the absorbance of the control reaction liquid before incubation by the absorbance of the control reaction liquid after incubation and further by dividing the resultant value by 60; and “Fading Rate of Sample Solution” is the natural logarithm of a value which is acquired by dividing the absorbance of the sample reaction liquid before incubation by the absorbance of the sample reaction liquid after incubation and further by dividing the resultant value by 60.
SMILES,Antioxidant Activity (%) from β-carotene Fading Test [%],antioxidant activity (in words)
"CC(C)=CCC/C(C)=C/Cc1c([C@@H]2CC(=O)c3c(O)cc(O)cc3O2)ccc(O)c1O [Compound 1, 5,7,3′,4′-tetrahydroxy-2′-C-geranylflavanone]",85.54 ± 2.24,"about the same high antioxidant activity as that of each of BHT, α-tocopherol, and eriodictyol"
"CC(C)=CCC/C(C)=C/Cc1cc([C@@H]2CC(=O)c3c(O)cc(O)cc3O2)cc(O)c1O [Compound 2, 5,7,3′,4′-tetrahydroxy-5′-C-geranylflavanone]",78.07 ± 1.79,"about the same high antioxidant activity as that of each of BHT, α-tocopherol, and eriodictyol"
"CC(C)=CCC/C(C)=C/Cc1c(O)cc2c(c1O)C(=O)C[C@@H](c1ccc(O)c(O)c1)O2 [Compound 3, 5,7,3′,4′-tetrahydroxy-6-C-geranylflavanone]",60.62 ± 1.16,–
"CC(C)=CCC/C(C)=C/Cc1c([C@@H]2CC(=O)c3c(cc(O)c(CC=C(C)C)c3O)O2)ccc(O)c1O [Compound 4, 5,7,3′,4′-tetrahydroxy-6-(3′″,3′″-dimethylallyl)-2′-C-geranylflavanone]",80.06 ± 0.29,"about the same high antioxidant activity as that of each of BHT, α-tocopherol, and eriodictyol"
